From patent US7521427B2 (Georgia Tech Research Corporation, priority 2004, dated 2009)
Read-outs that look alike come from different tables or passages of the source.

Tests used:
calpain I = molecular target: T1, calpain I (Homo sapiens, UniProt P07384); experiment: Calpain I irreversible inhibition assay; format: biochemical, porcine; settings: 23° C.; for kinact/KI: read-out: kobs/[I] Calpain I
T1 construct: purchased Calbiochem (La Jolla, Calif.)
T1 sequence (P07384 1-714): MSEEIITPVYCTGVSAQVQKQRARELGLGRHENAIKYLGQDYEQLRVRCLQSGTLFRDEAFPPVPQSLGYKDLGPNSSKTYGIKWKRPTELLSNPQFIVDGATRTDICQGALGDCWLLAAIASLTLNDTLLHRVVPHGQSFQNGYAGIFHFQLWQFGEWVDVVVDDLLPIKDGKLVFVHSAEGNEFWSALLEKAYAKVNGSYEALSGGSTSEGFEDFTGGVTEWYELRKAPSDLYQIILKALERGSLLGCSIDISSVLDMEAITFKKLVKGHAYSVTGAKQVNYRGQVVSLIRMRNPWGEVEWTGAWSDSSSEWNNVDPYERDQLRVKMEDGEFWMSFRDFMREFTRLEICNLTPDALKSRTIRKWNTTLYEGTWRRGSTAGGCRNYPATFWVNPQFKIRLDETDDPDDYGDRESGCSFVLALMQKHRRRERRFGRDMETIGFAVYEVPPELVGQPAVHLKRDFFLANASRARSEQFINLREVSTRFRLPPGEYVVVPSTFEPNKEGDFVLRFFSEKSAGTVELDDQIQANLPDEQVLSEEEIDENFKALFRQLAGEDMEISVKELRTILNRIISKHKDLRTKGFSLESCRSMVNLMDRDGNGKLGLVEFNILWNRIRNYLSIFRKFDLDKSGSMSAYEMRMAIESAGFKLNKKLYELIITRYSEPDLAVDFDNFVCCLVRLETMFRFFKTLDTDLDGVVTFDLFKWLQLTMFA
T1 sequence (P04632 1-268 partner): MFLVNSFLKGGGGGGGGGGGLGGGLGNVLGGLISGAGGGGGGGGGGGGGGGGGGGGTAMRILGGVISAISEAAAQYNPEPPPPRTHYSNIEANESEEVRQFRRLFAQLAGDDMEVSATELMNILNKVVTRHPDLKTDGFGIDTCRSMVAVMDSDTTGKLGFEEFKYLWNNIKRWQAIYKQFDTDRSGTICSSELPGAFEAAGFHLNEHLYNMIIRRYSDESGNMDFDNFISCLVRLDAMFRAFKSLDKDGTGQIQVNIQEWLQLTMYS
Procedure: Calpain I was purchased from Calbiochem (La Jolla, Calif.) in a solution of 30% glycerol at a concentration of 6.96 μM and stored at −20° C. prior to use. The calpain I assay was conducted with 235 μL of a solution of 50 mM Hepes, […], at pH 7.5 (calpain I buffer), 6.5 μL of Suc-Leu-Tyr-AMC substrate solution in DMSO and 4.2 μL of the enzyme solution (6.96 μM) at 23° C. The enzymatic activity was monitored by following the change in fluorescence for 10 min at 465 nm. The k2 values were obtained by non-linear regression analysis and corrected for substrate (1+[S]/KM=1.274). All assays were run in duplicate and the standard deviation was determined.

papain = molecular target: T2, papain (Carica papaya, UniProt P00784); experiment: Papain incubation method inhibition assay; format: biochemical; settings: for kinact/KI: pH 7.5, read-out: kobs/[I] Papain, incubation method; for kobs/[I] Papain: incubation method, pH 7.5
T2 construct: purchased
T2 sequence (P00784 134-345): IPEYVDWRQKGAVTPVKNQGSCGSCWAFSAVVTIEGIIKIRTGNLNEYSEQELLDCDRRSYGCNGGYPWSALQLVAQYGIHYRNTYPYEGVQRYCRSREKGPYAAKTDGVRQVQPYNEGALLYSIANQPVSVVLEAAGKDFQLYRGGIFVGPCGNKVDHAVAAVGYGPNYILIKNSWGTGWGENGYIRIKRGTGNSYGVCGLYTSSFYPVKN
Procedure: (§1) The incubation method was used to measure the irreversible inhibition of papain and cathepsin B. With cathepsin B, 30 μL of a stock inhibitor solution was added to 300 μL of a 0.1 M potassium phosphate buffer containing 1.25 mM EDTA, 0.01% Brij 35 at pH 6.0, followed by the addition of 30 μL of a freshly prepared cathepsin B solution (approximate concentration 6.98×10^−3 μg/μL) in the same potassium phosphate buffer containing 1 mM DTT (freshly prepared). Aliquots (50 μL) from the inhibition mixture were withdrawn at various time intervals and added to 200 μL of a 0.1 M potassium phosphate buffer containing 1.25 mM EDTA, 0.01% Brij 35 at pH 6.0, and the substrate Cbz-Arg-Arg-AMC (499 μM). The release of 7-amino-4-methylcoumarin was monitored (λex=360 nm, λem=465 nm) using a Tecan Spectra Fluor microplate reader. Pseudo first-order inactivation rate constants were obtained from plots of In vt/vo versus time.
The incubation method was also used for commercially available papain. The inhibition incubation buffer for papain was 50 mM Hepes buffer at pH 7.5, containing 2.5 mM DTT (dithiothreitol) and 2.5 mM EDTA. The assay used the substrate Cbz-Phe-Arg-pNA (53.7 μM) in the same buffer. The approximate concentration of papain added to the incubation buffer was 0.29 mg/mL. The release of p-nitroanilide was monitored at 405 nm with a Molecular Devices Thermomax microplate reader. All assays were run in duplicate.

cathepsin B [1] = molecular target: T3, cathepsin B (Homo sapiens, UniProt P07858); experiment: Cathepsin B incubation method inhibition assay; format: biochemical; settings: pH 6.0, 23° C., N.I. = no inhibition after 20 minutes of incubation
Procedure: as §1

cathepsin L [2] = molecular target: T4, cathepsin L (Homo sapiens, UniProt P07711); experiment: Cathepsin L progress curve inhibition assay; format: biochemical; settings: corrected for substrate; for kinact/KI: pH 5.5, progress curve method, read-out: kobs/[I] Cathepsin L
T4 construct: purchased Athens Research & Technology (Athens, Ga.)
Procedure: Cathepsin L was purchased from Athens Research & Technology (Athens, Ga.) in a 20 mM malonate buffer solution at pH 5.5 with 1 mM EDTA and 400 mM NaCl with a specific activity of 4.133 U/mg. The progress of cathepsin L inhibition was conducted with 243 μL of a solution of 0.25 M NaAc, 2 mM EDTA, 0.015% Brij, 5 mM DTT (dithiothreitol) at pH 5.5, 4 μL of Cbz-Phe-Arg-AMC substrate solution (16 mM) in DMSO (2% final concentration). Activity was monitored by following the change in fluorescence for 20 min at 465 nm. The kobs values were obtained by non-linear regression analysis and corrected for substrate (1+[S]/KM=1.274). All assays were run in duplicate and the standard deviation was determined.

[3] = molecular target: purified recombinant cruzain (Trypanosoma cruzi, UniProt P25779); experiment: Cruzain IC50 determination; format: biochemical; settings: for IC50: cruzain 2 nM, 5 minutes preincubation at room temperature, pH 5.5
Procedure: (§2) Inhibitors were screened for effectiveness against purified recombinant cruzain and rhodesain. Cruzain (2 nM) or rhodesain (3 nM) was incubated with 0.0001 to 1 μM inhibitor in 100 mM sodium acetate buffer, pH 5.5 and 5 mM DTT (buffer A), for 5 minutes at room temperature. Buffer A containing Cbz-Phe-Arg-AMC (Bachem, KM=1 μM, AMC=7-amino-4-methylcoumarin) was added to the enzyme and inhibitor to give 20 or 10 μM substrate concentration for cruzain and rhodesain, respectively, in 200 μL. The increase in fluorescence (excitation at 355 nm and emission at 460 nm) was followed with an automated microtiter plate spectrofluorimeter (Molecular Devices, Flex Station). Inhibitor stock solutions were prepared at 20 mM in DMSO and serial dilutions were made in DMSO (0.7% DMSO in assay). Controls were performed using enzyme alone, and enzyme with DMSO. IC50 values were determined graphically using inhibitor concentrations in the linear portion of a plot of enzyme activity versus log [I] (7 concentrations tested with at least 2 in the linear range).

[4] = molecular target: purified recombinant rhodesain (Trypanosoma brucei rhodesiense, UniProt Q95PM0); experiment: Rhodesain IC50 determination; format: biochemical, Trypanosoma brucei rhodensiense; settings: for IC50: rhodesain 3 nM, 5 minutes preincubation at room temperature, pH 5.5
Procedure: as §2

cathepsin B [5] = molecular target: T3, cathepsin B; settings: irreversible inhibition; cited from earlier work
cathepsin L [6] = molecular target: T4, cathepsin L; settings: irreversible inhibition; cited from earlier work
cathepsin H = molecular target: T5, cathepsin H (Homo sapiens, UniProt P09668); settings: irreversible inhibition; cited from earlier work
T5 sequence (P09668 98-335): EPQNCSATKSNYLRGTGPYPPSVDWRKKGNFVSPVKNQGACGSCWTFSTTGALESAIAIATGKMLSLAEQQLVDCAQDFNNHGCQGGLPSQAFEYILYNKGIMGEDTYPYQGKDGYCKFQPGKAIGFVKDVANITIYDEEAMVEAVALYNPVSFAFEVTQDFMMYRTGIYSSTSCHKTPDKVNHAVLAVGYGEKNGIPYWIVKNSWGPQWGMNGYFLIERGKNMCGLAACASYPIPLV

[7] = pH 7.5, incubation method, plots of ln vt/v0 vs time
[8] = pH 7.5, progress curve method, corrected for substrate

T4 sequence (P07711 114-333): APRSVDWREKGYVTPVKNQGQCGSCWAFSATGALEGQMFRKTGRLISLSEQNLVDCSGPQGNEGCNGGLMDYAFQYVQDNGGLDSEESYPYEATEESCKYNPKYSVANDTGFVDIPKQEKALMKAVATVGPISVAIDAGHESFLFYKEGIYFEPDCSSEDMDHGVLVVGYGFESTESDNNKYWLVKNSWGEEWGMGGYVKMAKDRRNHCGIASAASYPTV
Sequence of purified recombinant rhodesain (Q95PM0 entry or part of it): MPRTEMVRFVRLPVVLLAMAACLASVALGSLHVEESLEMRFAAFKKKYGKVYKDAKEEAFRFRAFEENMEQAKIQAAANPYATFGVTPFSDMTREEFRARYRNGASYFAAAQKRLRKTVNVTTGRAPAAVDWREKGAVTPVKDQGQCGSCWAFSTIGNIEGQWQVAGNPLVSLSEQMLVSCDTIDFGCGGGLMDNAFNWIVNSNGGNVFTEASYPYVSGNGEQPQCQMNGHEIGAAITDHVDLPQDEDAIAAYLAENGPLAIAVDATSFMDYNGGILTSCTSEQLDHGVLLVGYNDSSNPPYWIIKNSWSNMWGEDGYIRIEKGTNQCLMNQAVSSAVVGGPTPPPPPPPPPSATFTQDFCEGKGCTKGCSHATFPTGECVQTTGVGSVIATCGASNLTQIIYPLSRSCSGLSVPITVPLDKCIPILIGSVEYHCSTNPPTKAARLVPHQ
Sequence of purified recombinant cruzain (P25779 123-467): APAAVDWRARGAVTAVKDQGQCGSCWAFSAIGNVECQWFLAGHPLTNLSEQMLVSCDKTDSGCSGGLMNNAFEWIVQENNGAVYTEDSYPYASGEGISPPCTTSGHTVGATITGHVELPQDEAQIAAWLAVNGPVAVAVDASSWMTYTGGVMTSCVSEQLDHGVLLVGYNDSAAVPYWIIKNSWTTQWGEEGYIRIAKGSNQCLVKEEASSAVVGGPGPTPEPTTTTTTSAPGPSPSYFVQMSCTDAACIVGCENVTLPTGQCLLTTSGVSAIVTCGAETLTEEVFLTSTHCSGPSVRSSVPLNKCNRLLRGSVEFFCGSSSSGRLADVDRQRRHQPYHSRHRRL

Row | Structure (SMILES) | kinact/KI (calpain I; [7]) [M⁻¹ s⁻¹] | kinact/KI (papain) [M⁻¹ s⁻¹] | kobs/[I] Cathepsin B (cathepsin B [1]) | kinact/KI (cathepsin L [2]) [M⁻¹ s⁻¹] | IC50 ([3]; read-out: IC50 Cruzain) [µM] | IC50 ([4]; IC50 Rhodesain) [µM] | kobs/[I] Papain (papain) [M⁻¹ s⁻¹] | kinact/KI (calpain I; [8]) [M⁻¹ s⁻¹] | kobs/[I] Calpain I (calpain I; progress curve method, corrected for substrate, pH 7.5) [M⁻¹ s⁻¹] | kobs/[I] Cathepsin L (cathepsin L [2]; progress curve method, pH 5.5) [M⁻¹ s⁻¹] | kapp cathepsin B (cathepsin B [5]) [M⁻¹ s⁻¹] | kapp cathepsin L (cathepsin L [6]) [M⁻¹ s⁻¹] | inhibition of cathepsin H (cathepsin H) | IC50 ([3]; IC50 Cruzain) [µM] | fold less potent with cruzain than the corresponding allyl sulfone Cbz-Leu-Phe-AS-Ph ([3]; ratio of IC50 values) | fold less potent with rhodesain than the corresponding allyl sulfone Cbz-Leu-Phe-AS-Ph ([4]; ratio of IC50 values) [fold] | IC50 ([4]; read-out: IC50 Rhodesain) [µM]
1 | C[C@H](NC(=O)OCc1ccccc1)C(=O)NC(=CCS(=O)(=O)c1ccccc1)Cc1ccccc1 (mixture of isomers) [Cbz-Ala-Phe-AS-Ph, Phenyl-3-(N-carbobenzyloxyalanyl)amino-4-phenylbut-2-enyl Sulfone] | 3 | 9 | N.I.^f | 183 ± 10 | > 10 | > 10 | – | – | – | – | – | – | – | – | – | – | –
2 | CC(C)[C@H](NC(=O)OCc1ccccc1)C(=O)NC(=CCS(=O)(=O)c1ccccc1)Cc1ccccc1 (mixture of isomers) [Cbz-Val-Phe-AS-Ph, Phenyl-3-(N-carbobenzyloxyvalyl)amino-4-phenylbut-2-enyl Sulfone] | 3 | 6 ± 1 | N.I. | 310 ± 52 | 6 | 5 | – | – | – | – | – | – | – | – | – | – | –
3 | CC(C)C[C@H](NC(=O)OCc1ccccc1)C(=O)NC(=CCS(=O)(=O)c1ccccc1)Cc1ccccc1 (single isomer, unassigned) [Cbz-Leu-Phe-AS-Ph (Isomer A), Phenyl-3-(N-carbobenzyloxyleucyl)amino-4-phenylbut-2-enyl Sulfone] | 23 ± 4 | – | N.I. | 700 ± 43 | 0.06 | 0.04 | 49 | – | – | – | – | – | – | – | – | – | –
4 | CC(C)C[C@H](NC(=O)OCc1ccccc1)C(=O)NC(=CCS(=O)(=O)c1ccccc1)Cc1ccccc1 (single isomer, unassigned) [Cbz-Leu-Phe-AS-Ph (Isomer B), Phenyl-3-(N-carbobenzyloxyleucyl)amino-4-phenylbut-2-enyl Sulfone] | – | – | N.I. | – | 0.3 | 0.18 | 15 ± 1 | 564 ± 32 | 564 | 1062 | – | – | – | – | – | – | –
5 | CC(C)CCNC(=O)[C@H](CC(C)C)NC(=O)/C=C/C(=O)O (stereo in doubt) [fumarate derivative of E-64c, trans-HOOCCH═CH—CO-Leu-NH(CH2)2CH(CH3)2] | – | – | – | – | – | – | – | – | – | – | 625 | 2272 | inhibits | – | – | – | –
6 | CC(C)C[C@H](NC(=O)OCc1ccccc1)C(=O)N[C@H](C=CS(=O)(=O)c1ccccc1)Cc1ccccc1 [reference compound] | – | 10 | N.I. | 219 ± 96 | – | – | – | 550 ± 2 | – | – | – | – | – | 2 | over 30 fold | > 12 | 0.5
